Laboratory results published in ChEMBL document CHEMBL4673281, “Influenza antiviral activity of F- and OH-containing isopulegol-derived octahydro-2H-chromenes” (Bioorg Med Chem Lett, 2021).
Activity calls are given as the source filed them. The calls are words filed in the database; no cut-off is given here.

Experiments:
[1] = Selectivity index, ratio of CC50 for MDCK cells to IC50 for Influenza A virus (A/Puerto Rico/8/34 (H1N1)) infected in MDCK cells; assay type: toxicity, cell-based; details: dog, read-out: Ratio CC50/IC50
[2] = Cytotoxicity against MDCK cells assessed as cell death incubated for 48 hrs by MTT assay; assay type: cell-based, Canis lupus familiaris; details: dog
Influenza A virus [3] = assay: Antiviral activity against Influenza A virus (A/Puerto Rico/8/34 (H1N1) infected in MDCK cells assessed as decrease in viral titer preincubated for 1 hr followed by viral infection and cultivated for 48 hrs followed by supernatant transferred to chicken erythrocyte for 1 hr followed by measuring ability to cause positive hemagglutination; assay type: functional, organism-based; details: A/Puerto Rico/8/1934(H1N1)
Influenza A virus [4] = assay: Antiviral activity against Influenza A virus (A/Puerto Rico/8/34(H1N1)) pdm09 infected in MDCK cells assessed as inhibition of virus infection at early stage by time of addition experiment; assay type: functional, organism-based; details: A/Puerto Rico/8/1934(H1N1)
[5] = system: Influenza A virus (A/Puerto Rico/8/1934(H1N1)); assay: Inhibition of Hemagglutinin in Influenza A virus (A/Puerto Rico/8/34(H1N1)); details: dose 0-300 µg/ml

COc1ccc([C@H]2CC(C)(O)[C@@H]3CC[C@@H](C)C[C@H]3O2)cc1 (some centres undefined)
selectivity ratio [1]: 24 | CC50 at 48 h [2]: 689 µM | IC50 (Influenza A virus [3]): 29 µM

COc1cc([C@H]2CC(C)(F)[C@@H]3CC[C@@H](C)C[C@H]3O2)ccc1O (some centres undefined)
selectivity ratio [1]: 2 | CC50 at 48 h [2]: 642 µM | IC50 (Influenza A virus [3]): > 324 µM

COc1ccc([C@H]2CC(C)(O)[C@@H]3CC[C@@H](C)C[C@H]3O2)c(OC)c1 (some centres undefined)
selectivity ratio [1]: 12 | CC50 at 48 h [2]: > 937 µM | IC50 (Influenza A virus [3]): 78 µM

CC(N)C12CC3CC(CC(C3)C1)C2 (centres undefined) [RIMANTADINE]
selectivity ratio [1]: 5 | CC50 at 48 h [2]: 326 µM | IC50 (Influenza A virus [3]): 69 µM

COc1ccc([C@H]2CC(C)(F)[C@@H]3CC[C@@H](C)C[C@H]3O2)c(OC)c1 (some centres undefined)
selectivity ratio [1]: 2 | CC50 at 48 h [2]: 379 µM | IC50 (Influenza A virus [3]): 155 µM

C[C@@H]1CC[C@@H]2[C@@H](C1)O[C@@H](c1ccc(Br)cc1)CC2(C)F (some centres undefined)
selectivity ratio [1]: 2 | CC50 at 48 h [2]: > 882 µM | IC50 (Influenza A virus [3]): 391 µM

C[C@@H]1CC[C@@H]2[C@@H](C1)O[C@@H](c1ccccc1O)CC2(C)O (some centres undefined)
selectivity ratio [1]: 1 | CC50 at 48 h [2]: > 1090 µM | IC50 (Influenza A virus [3]): > 1090 µM

COc1ccc([C@H]2CC(C)(O)[C@@H]3CC[C@@H](C)C[C@H]3O2)c(OC)c1OC (some centres undefined)
selectivity ratio [1]: 1 | CC50 at 48 h [2]: > 857 µM | IC50 (Influenza A virus [3]): 717 µM

C[C@@H]1CC[C@@H]2[C@@H](C1)O[C@@H](c1ccc(F)cc1)CC2(C)O (some centres undefined)
selectivity ratio [1]: 2 | CC50 at 48 h [2]: 65 µM | IC50 (Influenza A virus [3]): > 36 µM

C[C@@H]1CC[C@@H]2[C@@H](C1)O[C@@H](c1ccc(O)cc1)CC2(C)F (some centres undefined)
selectivity ratio [1]: 3 | CC50 at 48 h [2]: 95 µM | IC50 (Influenza A virus [3]): > 36 µM

COc1cc(OC)c([C@H]2CC(C)(F)[C@@H]3CC[C@@H](C)C[C@H]3O2)cc1OC (some centres undefined)
selectivity ratio [1]: 13 | CC50 at 48 h [2]: 78 µM | IC50 (Influenza A virus [3]): 6 µM

COc1cc([C@H]2CC(C)(O)[C@@H]3CC[C@@H](C)C[C@H]3O2)cc(OC)c1OC (some centres undefined)
selectivity ratio [1]: 1 | CC50 at 48 h [2]: 405 µM | IC50 (Influenza A virus [3]): > 285 µM

COc1cccc([C@H]2CC(C)(F)[C@@H]3CC[C@@H](C)C[C@H]3O2)c1OC (some centres undefined)
selectivity ratio [1]: 4 | CC50 at 48 h [2]: 180 µM | IC50 (Influenza A virus [3]): 43 µM

NC(=O)c1ncn([C@@H]2O[C@H](CO)[C@@H](O)[C@H]2O)n1 [RIBAVIRIN]
selectivity ratio [1]: 61 | CC50 at 48 h [2]: > 2130 µM | IC50 (Influenza A virus [3]): 35 µM

COc1ccc([C@H]2CC(C)(O)[C@@H]3CC[C@@H](C)C[C@H]3O2)cc1OC (some centres undefined)
selectivity ratio [1]: 3 | CC50 at 48 h [2]: > 937 µM | IC50 (Influenza A virus [3]): 344 µM

C[C@@H]1CC[C@@H]2[C@@H](C1)O[C@@H](c1ccc(F)cc1)CC2(C)F (some centres undefined)
selectivity ratio [1]: 2 | CC50 at 48 h [2]: 68 µM | IC50 (Influenza A virus [3]): > 36 µM

C[C@@H]1CC[C@@H]2[C@@H](C1)O[C@@H](c1ccccc1)CC2(C)O (some centres undefined)
selectivity ratio [1]: 6 | CC50 at 48 h [2]: 580 µM | IC50 (Influenza A virus [3]): 100 µM

COc1ccc([C@H]2CC(C)(F)[C@@H]3CC[C@@H](C)C[C@H]3O2)cc1O (some centres undefined)
selectivity ratio [1]: 4 | CC50 at 48 h [2]: 136 µM | IC50 (Influenza A virus [3]): > 32 µM

COc1cc([C@H]2CC(C)(F)[C@@H]3CC[C@@H](C)C[C@H]3O2)cc(OC)c1OC (some centres undefined)
selectivity ratio [1]: 3 | CC50 at 48 h [2]: 568 µM | IC50 (Influenza A virus [3]): 199 µM

C[C@@H]1CC[C@@H]2[C@@H](C1)O[C@@H](c1ccccc1)CC2(C)F (some centres undefined)
selectivity ratio [1]: 2 | CC50 at 48 h [2]: 65 µM | IC50 (Influenza A virus [3]): > 38 µM

COc1cc([C@H]2CC(C)(O)[C@@H]3CC[C@@H](C)C[C@H]3O2)cc(OC)c1O (some centres undefined)
selectivity ratio [1]: 2 | CC50 at 48 h [2]: 473 µM | IC50 (Influenza A virus [3]): 235 µM

C[C@@H]1CC[C@@H]2[C@@H](C1)O[C@@H](c1ccc(Cl)cc1)CC2(C)F (some centres undefined)
selectivity ratio [1]: 2 | CC50 at 48 h [2]: 57 µM | IC50 (Influenza A virus [3]): 29 µM

C[C@@H]1CC[C@@H]2[C@@H](C1)O[C@@H](c1ccc(Cl)cc1)CC2(C)O (some centres undefined)
selectivity ratio [1]: 2 | CC50 at 48 h [2]: 62 µM | IC50 (Influenza A virus [3]): > 37 µM

COc1ccc([C@H]2CC(C)(F)[C@@H]3CC[C@@H](C)C[C@H]3O2)cc1OC (some centres undefined)
selectivity ratio [1]: 2 | CC50 at 48 h [2]: 20 µM | IC50 (Influenza A virus [3]): > 9 µM

COc1cc(OC)c([C@H]2CC(C)(O)[C@@H]3CC[C@@H](C)C[C@H]3O2)cc1OC (some centres undefined)
selectivity ratio [1]: 1 | CC50 at 48 h [2]: > 857 µM | IC50 (Influenza A virus [3]): > 857 µM

C[C@@H]1CC[C@@H]2[C@@H](C1)O[C@@H](c1ccccc1O)CC2(C)F (some centres undefined)
selectivity ratio [1]: 1 | CC50 at 48 h [2]: 44 µM | IC50 (Influenza A virus [3]): > 36 µM

C[C@@H]1CC[C@@H]2[C@@H](C1)O[C@@H](c1ccc(O)cc1)CC2(C)O (some centres undefined)
selectivity ratio [1]: 1 | CC50 at 48 h [2]: 127 µM | IC50 (Influenza A virus [3]): 87 µM

COc1ccc([C@H]2CC(C)(O)[C@@H]3CC[C@@H](C)C[C@H]3O2)cc1O (some centres undefined)
selectivity ratio [1]: 6 | CC50 at 48 h [2]: 738 µM | IC50 (Influenza A virus [3]): 118 µM

COc1cc([C@H]2CC(C)(F)[C@@H]3CC[C@@H](C)C[C@H]3O2)cc(OC)c1O (some centres undefined)
selectivity ratio [1]: 3 | CC50 at 48 h [2]: 158 µM | IC50 (Influenza A virus [3]): 59 µM

COc1ccc(OC)c([C@H]2CC(C)(F)[C@@H]3CC[C@@H](C)C[C@H]3O2)c1 (some centres undefined)
selectivity ratio [1]: 1 | CC50 at 48 h [2]: 37 µM | IC50 (Influenza A virus [3]): > 31 µM

C[C@@H]1CC[C@@H]2[C@@H](C1)O[C@@H](c1ccc([N+](=O)[O-])cc1)CC2(C)O (some centres undefined)
selectivity ratio [1]: 3 | CC50 at 48 h [2]: > 982 µM | IC50 (Influenza A virus [3]): 393 µM

COc1cccc([C@H]2CC(C)(O)[C@@H]3CC[C@@H](C)C[C@H]3O2)c1OC (some centres undefined)
selectivity ratio [1]: 1 | CC50 at 48 h [2]: > 937 µM | IC50 (Influenza A virus [3]): > 937 µM

COc1ccc([C@H]2CC(C)(F)[C@@H]3CC[C@@H](C)C[C@H]3O2)c(OC)c1OC (some centres undefined)
selectivity ratio [1]: 22 | CC50 at 48 h [2]: 133 µM | IC50 (Influenza A virus [3]): 6 µM

COc1ccc([C@H]2CC(C)(F)[C@@H]3CC[C@@H](C)C[C@H]3O2)cc1 (some centres undefined)
selectivity ratio [1]: 2 | CC50 at 48 h [2]: 171 µM | IC50 (Influenza A virus [3]): > 103 µM

C[C@@H]1CC[C@@H]2[C@@H](C1)O[C@@H](c1ccc([N+](=O)[O-])cc1)CC2(C)F (some centres undefined)
selectivity ratio [1]: 1 | CC50 at 48 h [2]: > 976 µM | IC50 (Influenza A virus [3]): > 976 µM

C[C@@H]1CC[C@@H]2[C@@H](C1)O[C@@H](c1ccc(Br)cc1)CC2(C)O (some centres undefined)
selectivity ratio [1]: 1 | CC50 at 48 h [2]: 132 µM | IC50 (Influenza A virus [3]): > 89 µM

COc1cc(OC)c([C@H]2CC(C)(F)[C@@H]3CC[C@@H](C)C[C@H]3O2)c(OC)c1 (some centres undefined)
Activity (Influenza A virus [4]): Active | inhibition [5]: Dose-dependent effect | selectivity ratio [1]: 35 | CC50 at 48 h [2]: 851 µM | IC50 (Influenza A virus [3]): 24 µM

COc1cc([C@H]2CC(C)(O)[C@@H]3CC[C@@H](C)C[C@H]3O2)ccc1O (some centres undefined)
selectivity ratio [1]: 1 | CC50 at 48 h [2]: 411 µM | IC50 (Influenza A virus [3]): > 327 µM

COc1cc(OC)c([C@H]2CC(C)(O)[C@@H]3CC[C@@H](C)C[C@H]3O2)c(OC)c1 (some centres undefined)
Activity (Influenza A virus [4]): Active | inhibition [5]: Dose-dependent effect | selectivity ratio [1]: 45 | CC50 at 48 h [2]: 856 µM | IC50 (Influenza A virus [3]): 19 µM

COc1ccc(OC)c([C@H]2CC(C)(O)[C@@H]3CC[C@@H](C)C[C@H]3O2)c1 (some centres undefined)
selectivity ratio [1]: 2 | CC50 at 48 h [2]: 512 µM | IC50 (Influenza A virus [3]): > 312 µM
